According to US12371428B2 (Exelixis, Inc., priority 2019, dated 2025):

Key:
Assay type in all cases: cell-based
[1] = molecular target: KDR (phospho-KDR, VEGF165-stimulated HUVEC cells) (Homo sapiens (Human), UniProt P35968); assay: KDR autophosphorylation ELISA in HUVEC cells (Example G); conditions: cellular activity; KDR autophosphorylation ELISA in HUVEC cells
Procedure: Human umbilical vein endothelial cells or HUVEC (Lonza #C2519A) were seeded at 2×10^4 cells/well onto 96-well plates (Corning #3904), in EGM-2 growth medium (Lonza #CC-3162) containing 1% Penicillin Streptomycin (Thermo Fisher #15140-122). HUVEC cells were incubated at 37° C., 5% CO2 for 24 h and then starved for 24 h in serum-free EBM-2 basal medium (Lonza #CC-3156) containing 1% Penicillin Streptomycin. Test compounds were serially diluted to produce an 8-point dose curve in fresh serum-free medium to a final concentration of 0.3% DMSO (vehicle) and added to the cells and incubated for 1 h. Cells were then stimulated with 100 ng/mL recombinant human VEGF165 (R&D Systems #293-VE-500) for 5 min, washed with cold PBS, and immediately lysed with […] of cold 1× lysis buffer [20 mM Tris, 137 mM sodium chloride, 2 mM EDTA, 10% glycerol, 1% NP-40 alternative, 1 mM activated sodium orthovanadate, 1 mM PefaBloc SC (Sigma-Aldrich #11429868001), protease/phosphatase inhibitor tablet (Thermo Fisher #A32959)]. Lysates were collected and 100 μL/well added into the human phospho-KDR DuoSet IC ELISA (R&D Systems #DYC1766-2). Assay was performed according to manufacturer's instructions and sample phospho-KDR concentrations were extrapolated using human phospho-KDR control (R&D Systems #841421) as a standard. Positive control wells (100% activity) contained VEGF165-stimulated, DMSO-treated cell lysates. Negative control wells (0% activity) contained non-stimulated cell lysates. IC50 values were calculated by nonlinear regression analysis using a 4-parameter logistic curve fit in ActivityBase XE (IDBS).

[2] = molecular target: Met (phospho-Met, HGF-stimulated PC-3 prostate cancer cells) (Homo sapiens (Human), UniProt P08581); assay: Met autophosphorylation ELISA in PC-3 cells (Example F); conditions: cellular activity; Met autophosphorylation ELISA in PC-3 cells; read-out: c-Met IC50
Procedure: PC-3 prostate cancer cells (ATCC #CRL-1435) were seeded at 4×10^4 cells/well onto 24-well plates (Greiner #662165), in DMEM (Thermo Fisher #11995-040) containing 10% FBS (Thermo Fisher #26140-079), 1% MEM NEAA (Thermo Fisher #11140-050), 1% GlutaMax (Thermo Fisher #35050-061), and 1% Penicillin Streptomycin (Thermo Fisher #15140-122). PC-3 cells were incubated at 37° C., 5% CO2 for 24 h and then starved for 3 h in serum-free medium. Test compounds were serially diluted to produce an 8-point dose curve in fresh serum-free medium to a final concentration of 0.3% DMSO (vehicle) and added to the cells and incubated for 1 h. Cells were then stimulated with 100 ng/mL recombinant human HGF (R&D Systems #294-HG-250) for 10 min, washed with cold PBS, and immediately lysed with […] of cold 1× lysis buffer [20 mM Tris, 137 mM sodium chloride, 2 mM EDTA, 10% glycerol, 1% NP-40 alternative, 1 mM activated sodium orthovanadate, 1 mM PefaBloc SC (Sigma-Aldrich #11429868001), protease/phosphatase inhibitor tablet (Thermo Fisher #A32959)]. Lysates were clarified by centrifugation and 100 μL/well added into the PathScan phospho-Met (panTyr) Sandwich ELISA (Cell Signaling Technology #7333). Assay was performed according to manufacturer's instructions. Positive control wells (100% activity) contained HGF-stimulated, DMSO-treated cell lysates. Negative control wells (0% activity) contained HGF-stimulated, reference inhibitor-treated cell lysates. IC50 values were calculated by nonlinear regression analysis using a 4-parameter logistic curve fit in ActivityBase XE (IDBS).

[3] = molecular target: Mer (phospho-Mer, MERTK-transfected 293A cells) (Homo sapiens (Human), UniProt Q12866); assay: Mer autophosphorylation ELISA in transient transfected 293A cells (Example H); conditions: cellular activity; Mer autophosphorylation ELISA in transient transfected 293A cells
Procedure: 293A cells (Thermo Fisher #R70507) were seeded at 1.5×10^6 cells/well onto 100 mm dish (Greiner #664169), in DMEM (Thermo Fisher #11995-040) containing 10% FBS (Thermo Fisher #26140-079), 1% MEM NEAA (Thermo Fisher #11140-050), 1% GlutaMax (Thermo Fisher #35050-061), and 1% Penicillin Streptomycin (Thermo Fisher #15140-122). 293A cells were incubated at 37° C., 5% CO2 for 24 h and then transfected with […] MERTK DNA (Genecopoeia #EX-Z8208-M02) using TransIT LT1 transfection reagent (Mirus-Bio #MIR2305). After 24 h incubation, the transfected 293A cells were seeded at 1×10^5 cells/well onto 96-well plates (Corning #3904) in DMEM growth medium overnight. Test compounds were serially diluted to produce an 8-point dose curve in fresh serum-free medium to a final concentration of 0.3% DMSO (vehicle) and added to the cells and incubated for 1 h. Cells were then immediately lysed with 150 μL of cold 1× lysis buffer [20 mM Tris, 137 mM sodium chloride, 2 mM EDTA, 10% glycerol, 1% NP-40 alternative, 1 mM activated sodium orthovanadate, 1 mM PefaBloc SC (Sigma-Aldrich #11429868001), protease/phosphatase inhibitor tablet (Thermo Fisher #A32959)]. Lysates were clarified by centrifugation and 50 µL/well added in to the human phospho-Mer DuoSet IC ELISA (R&D Systems #DYC2579-2). Assay was performed according to manufacturer's instructions and sample phospho-Mer concentrations were extrapolated using human phospho-Mer control (R&D Systems #841793) as a standard. Positive control wells (100% activity) contained DMSO-treated cell lysates. Negative control wells (0% activity) contained reference inhibitor-treated cell lysates. IC50 values were calculated by nonlinear regression analysis using a 4-parameter logistic curve fit in ActivityBase XE (JDBS).

Chain of KDR (phospho-KDR, VEGF165-stimulated HUVEC cells) (P35968 20-1356): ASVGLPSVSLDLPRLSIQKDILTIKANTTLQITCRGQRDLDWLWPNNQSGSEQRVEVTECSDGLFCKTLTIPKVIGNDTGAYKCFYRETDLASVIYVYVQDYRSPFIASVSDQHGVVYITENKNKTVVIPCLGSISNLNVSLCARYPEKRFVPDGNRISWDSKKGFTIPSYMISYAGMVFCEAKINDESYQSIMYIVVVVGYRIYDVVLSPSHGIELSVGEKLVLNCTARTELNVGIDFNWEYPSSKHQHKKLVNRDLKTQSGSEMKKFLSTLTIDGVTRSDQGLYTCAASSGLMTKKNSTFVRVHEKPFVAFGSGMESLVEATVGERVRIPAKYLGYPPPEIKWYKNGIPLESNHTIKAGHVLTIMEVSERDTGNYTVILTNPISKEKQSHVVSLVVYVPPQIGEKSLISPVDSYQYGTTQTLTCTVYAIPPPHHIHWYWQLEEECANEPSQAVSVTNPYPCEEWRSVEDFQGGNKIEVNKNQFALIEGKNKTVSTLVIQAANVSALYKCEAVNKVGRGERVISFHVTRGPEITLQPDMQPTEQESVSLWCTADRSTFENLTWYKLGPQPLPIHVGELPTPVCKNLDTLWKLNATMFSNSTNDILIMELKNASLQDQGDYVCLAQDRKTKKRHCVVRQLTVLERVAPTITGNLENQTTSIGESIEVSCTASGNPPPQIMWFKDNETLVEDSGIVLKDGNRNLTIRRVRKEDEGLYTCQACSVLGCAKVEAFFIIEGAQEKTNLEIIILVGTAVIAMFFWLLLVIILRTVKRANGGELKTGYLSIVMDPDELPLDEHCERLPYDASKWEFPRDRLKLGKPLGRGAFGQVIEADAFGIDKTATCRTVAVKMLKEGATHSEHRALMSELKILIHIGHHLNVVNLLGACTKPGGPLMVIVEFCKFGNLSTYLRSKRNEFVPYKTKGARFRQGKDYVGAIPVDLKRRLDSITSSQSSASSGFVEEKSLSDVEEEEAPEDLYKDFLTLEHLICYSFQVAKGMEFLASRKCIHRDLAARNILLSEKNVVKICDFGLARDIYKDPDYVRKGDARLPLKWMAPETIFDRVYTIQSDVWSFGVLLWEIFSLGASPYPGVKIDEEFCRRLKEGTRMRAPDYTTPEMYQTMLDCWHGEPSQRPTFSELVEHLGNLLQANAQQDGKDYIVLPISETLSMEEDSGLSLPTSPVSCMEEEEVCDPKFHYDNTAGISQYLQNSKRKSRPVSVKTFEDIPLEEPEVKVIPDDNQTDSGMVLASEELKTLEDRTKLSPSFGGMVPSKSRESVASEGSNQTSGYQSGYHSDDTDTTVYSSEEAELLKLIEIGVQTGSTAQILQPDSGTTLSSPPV
Chain of Mer (phospho-Mer, MERTK-transfected 293A cells) (Q12866 21-999): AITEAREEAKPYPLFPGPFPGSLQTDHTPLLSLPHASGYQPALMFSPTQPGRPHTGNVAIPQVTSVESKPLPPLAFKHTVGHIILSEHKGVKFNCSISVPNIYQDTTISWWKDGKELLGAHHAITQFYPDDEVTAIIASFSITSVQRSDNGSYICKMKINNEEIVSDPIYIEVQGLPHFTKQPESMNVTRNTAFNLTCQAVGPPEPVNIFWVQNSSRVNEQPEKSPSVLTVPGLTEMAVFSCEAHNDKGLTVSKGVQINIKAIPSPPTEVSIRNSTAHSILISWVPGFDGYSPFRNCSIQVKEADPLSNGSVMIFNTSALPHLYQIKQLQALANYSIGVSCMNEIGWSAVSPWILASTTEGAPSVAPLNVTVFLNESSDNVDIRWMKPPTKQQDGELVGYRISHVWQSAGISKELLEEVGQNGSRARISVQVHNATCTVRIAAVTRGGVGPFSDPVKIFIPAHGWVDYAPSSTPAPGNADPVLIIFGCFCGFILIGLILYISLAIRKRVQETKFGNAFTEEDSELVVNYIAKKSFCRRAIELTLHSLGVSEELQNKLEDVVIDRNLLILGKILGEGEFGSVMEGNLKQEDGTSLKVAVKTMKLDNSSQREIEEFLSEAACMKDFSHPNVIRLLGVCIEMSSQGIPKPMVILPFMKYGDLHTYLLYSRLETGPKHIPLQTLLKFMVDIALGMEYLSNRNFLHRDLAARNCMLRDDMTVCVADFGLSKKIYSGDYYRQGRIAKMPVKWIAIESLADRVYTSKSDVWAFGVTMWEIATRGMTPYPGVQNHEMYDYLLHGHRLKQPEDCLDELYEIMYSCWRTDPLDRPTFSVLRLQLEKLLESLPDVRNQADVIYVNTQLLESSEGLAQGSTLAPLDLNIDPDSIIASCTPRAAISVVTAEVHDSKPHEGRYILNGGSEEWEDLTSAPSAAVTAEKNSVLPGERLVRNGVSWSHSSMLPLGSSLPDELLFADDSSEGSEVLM
Chain of Met (phospho-Met, HGF-stimulated PC-3 prostate cancer cells) (P08581 25-1390): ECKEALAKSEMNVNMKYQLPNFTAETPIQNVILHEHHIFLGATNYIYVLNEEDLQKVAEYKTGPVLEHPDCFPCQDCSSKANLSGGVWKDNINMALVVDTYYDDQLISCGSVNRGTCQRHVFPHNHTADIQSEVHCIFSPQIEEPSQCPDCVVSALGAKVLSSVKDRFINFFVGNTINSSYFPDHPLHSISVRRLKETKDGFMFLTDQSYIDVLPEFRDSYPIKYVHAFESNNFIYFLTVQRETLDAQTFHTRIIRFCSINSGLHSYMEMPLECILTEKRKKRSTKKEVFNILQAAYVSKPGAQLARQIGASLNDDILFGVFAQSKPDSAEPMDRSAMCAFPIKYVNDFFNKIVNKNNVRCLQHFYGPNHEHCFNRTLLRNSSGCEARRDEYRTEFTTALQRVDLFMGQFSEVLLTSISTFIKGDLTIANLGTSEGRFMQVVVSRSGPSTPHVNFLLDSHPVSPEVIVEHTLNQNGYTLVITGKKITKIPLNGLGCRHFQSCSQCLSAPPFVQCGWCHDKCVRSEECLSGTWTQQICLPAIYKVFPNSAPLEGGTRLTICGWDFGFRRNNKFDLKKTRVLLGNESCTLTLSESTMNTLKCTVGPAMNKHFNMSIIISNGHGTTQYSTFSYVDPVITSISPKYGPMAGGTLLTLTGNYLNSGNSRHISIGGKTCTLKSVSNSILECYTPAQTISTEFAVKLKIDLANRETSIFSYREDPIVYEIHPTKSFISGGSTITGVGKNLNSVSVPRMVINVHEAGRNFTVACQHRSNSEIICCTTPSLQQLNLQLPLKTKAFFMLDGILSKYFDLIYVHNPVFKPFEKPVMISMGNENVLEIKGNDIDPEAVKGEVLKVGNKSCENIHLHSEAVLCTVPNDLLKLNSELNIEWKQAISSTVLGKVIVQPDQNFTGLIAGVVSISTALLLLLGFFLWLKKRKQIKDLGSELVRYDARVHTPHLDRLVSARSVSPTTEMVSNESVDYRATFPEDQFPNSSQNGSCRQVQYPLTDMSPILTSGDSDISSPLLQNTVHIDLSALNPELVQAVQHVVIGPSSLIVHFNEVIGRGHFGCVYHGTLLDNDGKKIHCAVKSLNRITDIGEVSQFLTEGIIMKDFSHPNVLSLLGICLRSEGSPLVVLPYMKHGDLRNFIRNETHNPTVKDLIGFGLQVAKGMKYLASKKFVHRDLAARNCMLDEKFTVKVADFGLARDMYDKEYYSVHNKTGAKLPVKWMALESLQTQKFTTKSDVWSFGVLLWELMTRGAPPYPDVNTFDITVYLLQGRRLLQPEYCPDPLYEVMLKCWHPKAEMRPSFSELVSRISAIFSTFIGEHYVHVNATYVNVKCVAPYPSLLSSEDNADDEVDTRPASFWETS

| IC50 [1] [nM] | IC50 [2] [nM] | IC50 [3] [nM] | SMILES |
| --- | --- | --- | --- |
| < 100 | < 100 | < 100 | COc1cnc2c(Oc3ccc(NC(=O)c4c(C)ncc(-c5ccc(F)cc5C)c4O)cc3F)ccnc2c1 [Compound 719, N-[3-fluoro-4-[(7-methoxy-1,5-naphthyridin-4-yl)oxy]phenyl]-5-(4-fluoro-2-methylphenyl)-4-hydroxy-2-methylpyridine-3-carboxamide] |
| > 300 | < 100 | < 100 | COc1cc2nccc(Oc3ccc(NC(=O)c4cc(C(C)=O)c(C)n(-c5ccc(F)cc5C)c4=O)cc3F)c2nc1OC [Compound 720, 5-acetyl-N-[4-[(6,7-dimethoxy-1,5-naphthyridin-4-yl)oxy]-3-fluorophenyl]-1-(4-fluoro-2-methylphenyl)-6-methyl-2-oxopyridine-3-carboxamide] |
| 100 to 300 | < 100 | < 100 | COc1cc2nccc(Oc3ccc(NC(=O)c4c(C)n(CC(F)(F)F)cc(-c5ccc(F)cc5)c4=O)cc3F)c2nc1OC [Compound 727, N-[4-[(6,7-dimethoxy-1,5-naphthyridin-4-yl)oxy]-3-fluorophenyl]-5-(4-fluorophenyl)-2-methyl-4-oxo-1-(2,2,2-trifluoroethyl)pyridine-3-carboxamide] |
| < 100 | < 100 | < 100 | COc1cc2nccc(Oc3ccc(NC(=O)c4c(C)n(C(F)F)cc(-c5ccc(F)cc5)c4=O)cc3F)c2nc1OC [Compound 729, 1-(difluoromethyl)-N-[4-[(6,7-dimethoxy-1,5-naphthyridin-4-yl)oxy]-3-fluorophenyl]-5-(4-fluorophenyl)-2-methyl-4-oxopyridine-3-carboxamide] |
| 100 to 300 | < 100 | < 100 | COc1cc2nccc(Oc3ccc(NC(=O)c4c(C)c(C)c(C)n(-c5ccccc5)c4=O)cc3F)c2nc1OC [Compound 755, N-[4-[(6,7-dimethoxy-1,5-naphthyridin-4-yl)oxy]-3-fluorophenyl]-4,5,6-trimethyl-2-oxo-1-phenylpyridine-3-carboxamide] |
| < 100 | < 100 | < 100 | COc1cc2nccc(Oc3ccc(NC(=O)c4c(C)n(CCF)cc(-c5ccc(F)cc5C)c4=O)cc3F)c2nc1OC [Compound 756, N-[4-[(6,7-dimethoxy-1,5-naphthyridin-4-yl)oxy]-3-fluorophenyl]-1-(2-fluoroethyl)-5-(4-fluoro-2-methylphenyl)-2-methyl-4-oxopyridine-3-carboxamide] |
| > 300 | < 100 | < 100 | CCOc1ccn(-c2ccc(F)cc2)c(=O)c1C(=O)Nc1ccc(Oc2ccnc3nc(OC)c(OCCOC)cc23)c(F)c1 [Compound 761, 4-ethoxy-N-[3-fluoro-4-[[7-methoxy-6-(2-methoxyethoxy)-1,8-naphthyridin-4-yl]oxy]phenyl]-1-(4-fluorophenyl)-2-oxopyridine-3-carboxamide] |
| > 300 | < 100 | < 100 | COc1cc2nccc(Oc3ccc(NC(=O)c4cnc(C)c(-c5ccc(F)cc5)n4)cc3F)c2nc1OC [Compound 764, N-[4-[(6,7-dimethoxy-1,5-naphthyridin-4-yl)oxy]-3-fluorophenyl]-6-(4-fluorophenyl)-5-methylpyrazine-2-carboxamide] |
| < 100 | < 100 | < 100 | COc1cnc2c(Oc3c(F)cc(NC(=O)c4c(C)nc(C)c(-c5ccc(F)cc5C)c4O)c(F)c3F)ccnc2c1 [Compound 768, 5-(4-fluoro-2-methylphenyl)-4-hydroxy-2,6-dimethyl-N-[2,3,5-trifluoro-4-[(7-methoxy-1,5-naphthyridin-4-yl)oxy]phenyl]pyridine-3-carboxamide] |
| < 100 | < 100 | < 100 | COc1cc2nccc(Oc3ccc(NC(=O)c4c(C)nnc(-c5ccc(F)cc5C)c4OC)cc3F)c2nc1OC [Compound 773, N-[4-[(6,7-dimethoxy-1,5-naphthyridin-4-yl)oxy]-3-fluorophenyl]-6-(4-fluoro-2-methylphenyl)-5-methoxy-3-methylpyridazine-4-carboxamide] |
